Data: article PMC10794137, “A new antibiotic traps lipopolysaccharide in its intermembrane transporter” (Nature, 2024)
Several values for one entry are separate records, joined by “and”; a condition that tells them apart may be missing. Equal entries are not always repeated.

Key:
[1] = system: Acinetobacter baylyi LptF(E249K); type: cell-based; details: A. baylyi LptF(E249K)
Procedure: (§1) Culture, genetic manipulation and MIC measurements of A. baylyi ADP1 were conducted according to previously reported procedures[46],[51]. Point mutants were constructed in a two-step procedure following ref. [52] with the introduction and excision of the integration cassette at codon 66 of pepA, wherein the excising fragment of otherwise wild-type chromosomal DNA sequence from codon 406 of pepA to codon 193 of lptG bore the desired mutation and the resulting clones were screened by amplicon sequencing from codon 81 of HolC to codon 501 of GpmI, whereas lpxM deletion was achieved following the same procedure except that the integration cassette insertion and excision removed codons 79–279 of lpxM to avoid interference with neighbouring and overlapping genes that a larger deletion may risk and replaced codon 78 with an ochre stop codon to prevent a readthrough resulting in an aberrant fusion, with the excising fragment sequence spanning from codon 211 of sppA to codon 497 of ComA and verified by amplicon sequencing from codon 94 of MhpC to codon 327 of ComA as well as by absence of a PCR product corresponding to a region spanning codons 79 to 279 of lpxM to check for duplications. A deletion of the lon protease was made in the same manner to produce the stain used for expression and purification of LptB2FG to mimic the BL21 strain of E. coli used in the rest of purifications, for which the region encompassing 72 base pairs (bp) upstream of the lon start codon and 1 bp downstream of the lon stop codon was excised after being replaced with the same integration cassette, yielding a markerless deletion, with the excising fragment sequence spanning from codon 491 of ArnT to codon 40 of 45_DOPA_Dioxygenase and verified by amplicon sequencing spanning from codon 322 of ArnT to codon 221 of 45_DOPA_Dioxygenase as well as by absence of a PCR product corresponding to a region spanning from codons 328 to 768 of lon to check for duplications. Following amplicon confirmation, three validated isolates of each constructed mutant were tested for susceptibility to a panel of antibiotics with […] known mechanisms of action as a further validation step to ensure congruence of phenotypes across replicates, which was confirmed in all cases and one of the validated replicates was later used for MIC measurements reported here.
(§2) MIC determinations were performed by broth microdilution in line with CLSI guidelines (CLSI M07-A11 2018). Bacterial inocula were prepared by diluting overnight liquid cultures in LB. Antibacterial panels containing antibacterial solutions were inoculated with an appropriate volume of inoculum to give a final inoculum of about 5 × 10^5 c.f.u. ml^−1 and desired test concentrations of antibacterial agents in standard 96-well plates with 0.1 ml of culture per well. The test plates were incubated for 20–24 h and optical density (OD600) was recorded using a plate reader. MIC values corresponded to the lowest compound concentration inhibiting bacterial growth beyond which OD ceased to decrease.

[2] = system: Acinetobacter baylyi LptF(E58V); type: cell-based; details: A. baylyi LptF(E58V)
Procedure: as §1, §2

[3] = system: Acinetobacter baylyi LptF(I317N); type: cell-based; details: A. baylyi LptF(I317N)
Procedure: as §1, §2

[4] = system: Acinetobacter baylyi LptF(R320T); type: cell-based; details: A. baylyi LptF(R320T)
Procedure: as §1, §2

[5] = system: Acinetobacter baylyi LptF(V314L 315del); type: cell-based; details: A. baylyi LptF(V314L 315del)
Procedure: as §1, §2

[6] = system: Acinetobacter baylyi LptF(W271R); type: cell-based; details: A. baylyi LptF(W271R)
Procedure: as §1, §2

[7] = system: Acinetobacter baylyi LptG(L36Q); type: cell-based; details: A. baylyi LptG(L36Q)
Procedure: as §1, §2

[8] = system: Acinetobacter LptB2FGC; test: LPS release assay from proteoliposomes to LptA, wild-type LptB2FGC; type: biochemical, Acinetobacter baylyi; details: for Inhibition of LPS release (transport) to LptA: wild-type LptB2FGC, E. coli LPS, 60 min
Procedure: (§3) Proteoliposomes were prepared as described previously. Aqueous E. coli polar lipid extract (Avanti Polar Lipids) (30 mg ml^−1) and aqueous LPS from E. coli EH100 (Ra mutant; Sigma) (2 mg ml^−1) were sonicated briefly for homogenization. For experiments testing the effect of LPS structure, we used LPS isolated from either GKM374 (BL21DE3 eptA::catR arnA::kanR eptC::gentR) or TXM418 (BL21DE3 eptA::catR arnA::FRT eptB::gentR lpxM::kanR) as described previously. A mixture of 20 mM Tris-HCl (pH 8.0), 150 mM NaCl, 7.5 mg ml^−1 of E. coli polar lipids, 0.5 mg ml^−1 of LPS and 0.25% DDM was prepared and kept on ice for 10 min. Purified LptB2FGC or LptB2FG was added to a final concentration of 0.86 μM and the mixture was left on ice for 20 min. The mixture was diluted 100-fold with cold 20 mM Tris-HCl (pH 8.0) and 150 mM NaCl and kept on ice for 20 min. The proteoliposomes were pelleted (300,000g, 2 h, 4 °C), resuspended in 20 mM Tris-HCl (pH 8.0) and 150 mM NaCl, diluted 100× and centrifuged (300,000g, 2 h, 4 °C). The pellets were resuspended in a mixture of 20 mM Tris-HCl (pH 8.0), 150 mM NaCl and 10% glycerol (250 μl per 100 μl of the original predilution solution), homogenized by sonication, flash frozen and stored at −80 °C until use.
The amounts of release of LPS from proteoliposomes to LptA were measured as previously described. Assays used 60% proteoliposomes (by volume) in a solution containing 50 mM Tris-HCl (pH 8.0), 500 mM NaCl, 10% glycerol and 2 µM LptA^I36pBPA. Reaction mixtures were incubated with drug for 10 min at room temperature, as applicable. Reactions were then initiated by the addition of ATP and MgCl2 (final concentrations of 5 mM and 2 mM, respectively) and proceeded at 30 °C. Aliquots (25 µl) were removed from the reaction mixtures and irradiated with ultraviolet (UV) light (365 nm) on ice for 10 min using a B-100AP lamp (Fisher Scientific). Following UV irradiation, 25 µl of 2× SDS–PAGE sample loading buffer was added, samples were boiled for 10 min and proteins were separated using Tris-HCl 4–20% polyacrylamide gradient gels with Tris-glycine running buffer. Immunoblotting was conducted as described above.

[9] = system: LptB2F^E249KGC; test: LPS release assay, LptB2F(E249K)GC; type: biochemical, Acinetobacter baylyi; details: LptF E249K complex, E. coli LPS
Procedure: as §3
(§4) The amounts of release of LPS from proteoliposomes to LptA were measured as previously described. […]

[10] = system: LptB2F^I317NGC; test: LPS release assay, LptB2F(I317N)GC; type: biochemical, Acinetobacter baylyi; details: LptF I317N complex, E. coli LPS
Procedure: as §3, §4

[11] = target: T1, E. coli LptB2FGC (Escherichia coli, UniProt P0ADC6+P0AF98); test: LPS release assay, E. coli LptB2FGC; type: biochemical; details: wild-type E. coli LptB2FGC, 60 min
T1 construct: made in house
T1 sequence (P0AF98 whole entry): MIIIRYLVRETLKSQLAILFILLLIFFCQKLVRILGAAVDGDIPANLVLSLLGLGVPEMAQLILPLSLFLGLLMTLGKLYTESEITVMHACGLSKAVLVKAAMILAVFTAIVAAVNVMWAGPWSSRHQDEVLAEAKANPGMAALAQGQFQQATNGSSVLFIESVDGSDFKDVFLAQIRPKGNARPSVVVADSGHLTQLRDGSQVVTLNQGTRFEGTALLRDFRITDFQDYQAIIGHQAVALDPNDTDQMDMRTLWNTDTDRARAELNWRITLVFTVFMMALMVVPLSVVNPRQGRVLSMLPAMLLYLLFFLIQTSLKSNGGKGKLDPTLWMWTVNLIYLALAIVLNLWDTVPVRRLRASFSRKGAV
T1 sequence (P0ADC6 whole entry): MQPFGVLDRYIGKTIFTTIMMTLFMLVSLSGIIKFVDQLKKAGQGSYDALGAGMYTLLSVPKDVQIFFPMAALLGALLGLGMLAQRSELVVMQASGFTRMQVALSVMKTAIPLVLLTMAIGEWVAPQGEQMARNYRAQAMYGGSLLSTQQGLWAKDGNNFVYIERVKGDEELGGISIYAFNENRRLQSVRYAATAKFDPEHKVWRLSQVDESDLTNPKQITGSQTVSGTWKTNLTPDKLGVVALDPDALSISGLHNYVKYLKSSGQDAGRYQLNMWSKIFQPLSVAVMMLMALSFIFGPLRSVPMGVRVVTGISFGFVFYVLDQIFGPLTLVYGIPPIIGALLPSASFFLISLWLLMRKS
T1 sequence (P0A9V1 whole entry partner): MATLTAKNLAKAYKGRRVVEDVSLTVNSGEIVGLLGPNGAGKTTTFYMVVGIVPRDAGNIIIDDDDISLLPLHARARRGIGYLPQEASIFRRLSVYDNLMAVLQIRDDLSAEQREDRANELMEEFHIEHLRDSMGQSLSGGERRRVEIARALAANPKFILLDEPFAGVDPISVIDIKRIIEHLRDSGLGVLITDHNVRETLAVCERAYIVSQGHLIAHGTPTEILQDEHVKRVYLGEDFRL
T1 sequence (P0ADV9 whole entry partner): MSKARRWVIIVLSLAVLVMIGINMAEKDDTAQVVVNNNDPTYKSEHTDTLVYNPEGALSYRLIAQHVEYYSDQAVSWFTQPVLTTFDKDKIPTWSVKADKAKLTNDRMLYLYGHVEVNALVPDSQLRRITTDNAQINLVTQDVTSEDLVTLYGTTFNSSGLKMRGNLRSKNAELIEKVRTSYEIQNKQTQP
Procedure: The amounts of release of LPS from proteoliposomes to LptA were measured as previously described[20]. Assays used 60% proteoliposomes (by volume) in a solution containing 50 mM Tris-HCl (pH 8.0), 500 mM NaCl, 10% glycerol and 2 µM LptA^I36pBPA. Reaction mixtures were incubated with drug for 10 min at room temperature, as applicable. Reactions were then initiated by the addition of ATP and MgCl2 (final concentrations of 5 mM and 2 mM, respectively) and proceeded at 30 °C. Aliquots (25 µl) were removed from the reaction mixtures and irradiated with ultraviolet (UV) light (365 nm) on ice for 10 min using a B-100AP lamp (Fisher Scientific).

Row | SMILES | MIC [1] | MIC [2] | MIC [3] | MIC [4] | MIC [5] | MIC [6] | MIC [7] | Fold less effective than 1 and 2 in LPS release from LptB2FGC to LptA ([8]; LptB2FGC with LptC TM helix) | Inhibition of LPS release (transport) to LptA [8] | Fold higher compound concentration at which transport of ΔLpxM LPS was possible vs that inhibiting wild-type LPS transport ([8]; LPS from E. coli LpxM deletion strain vs matching wild-type LPS) | Inhibition of LPS release to LptA [9] | Inhibition of LPS release to LptA [10] | Inhibition of LPS transport to LptA [11]
1 | CN1C(=O)[C@H](CCCCN)NC(=O)[C@H](CCCN)NCc2cccnc2Sc2c(Cl)ccc(Cl)c2CNC(=O)[C@@H]1Cc1c[nH]c2ccccc12 [Compound 3] | > 50 µM | 14 µM and 10 µg/mL | > 50 µM | 0.24 µM and 0.18 µg/mL | 0.24 µM and 0.18 µg/mL | 0.07 µg/mL and 0.1 µM | 0.44 µM and 0.33 µg/mL | 100 fold | not inhibited | – | – | – | –
2 | CN1C(=O)[C@H](CCCCN)NC(=O)[C@H](CCCN)NCc2cccnc2Sc2c(Cl)ccc(-c3ccc(N)nc3)c2CNC(=O)[C@@H]1Cc1c[nH]c2ccccc12 [Compound 1] | – | – | – | – | – | – | – | – | blocked LPS release | 20 fold | did not block LPS release | did not block LPS release | –
3 | CN1C(=O)[C@H](CCCCN)NC(=O)[C@H](CCCN)NCc2cccnc2Sc2cccc(-c3ccc(C(=O)O)cc3)c2CNC(=O)[C@@H]1Cc1c[nH]c2ccccc12 [Compound 2, Zosurabalpin] | 17 µM and 13 µg/mL | 3.4 µM and 2.7 µg/mL | 9 µM and 7 µg/mL | 1.4 µM and 1.1 µg/mL | 3 µM and 2 µg/mL | 0.08 µg/mL and 0.1 µM | 0.44 µM and 0.35 µg/mL | – | – | – | – | – | does not inhibits LPS transport
